From US7468457B2, “Ligand inhibitors of the RAR receptors, process for preparing same and therapeutic/cosmetic applications thereof” (Galderma Research & Development, priority 2002, dated 2008)

Key:
Type in all cases: cell-based
RAR ALPHA = biological target: T1, RAR ALPHA (Homo sapiens, UniProt P10276); test: Transactivation test (luciferase reporter, HeLa stable transfectants), RAR alpha; settings: HeLa cells; for Kd: apparent Kd from Schild regression of crossed curves against reference agonist, read-out: RAR ALPHA Kd app; for IC50: inhibition at the reference agonist concentration that gives 80% activation
T1 sequence (P10276 183-417 limits assumed): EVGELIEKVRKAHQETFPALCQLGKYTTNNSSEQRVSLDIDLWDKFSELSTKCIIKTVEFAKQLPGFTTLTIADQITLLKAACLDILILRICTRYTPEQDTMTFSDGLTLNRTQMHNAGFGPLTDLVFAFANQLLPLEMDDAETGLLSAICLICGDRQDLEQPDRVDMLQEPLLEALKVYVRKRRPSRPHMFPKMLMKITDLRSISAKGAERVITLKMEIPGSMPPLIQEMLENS
Protocol: (§1) The activation of receptors with an agonist (activator) in HeLa cells leads to the expression of a reporter gene, luciferase, which, in the presence of a substrate, generates light. The activation of the receptors may thus be measured by quantifying the luminescence produced after incubating the cells in the presence of a reference agonist. The inhibitory products displace the agonist from its site, thus preventing activation of the receptor. The activity is measured by quantifying the reduction in light produced. This measurement makes it possible to determine the inhibitory activity of the compounds according to the invention.
(§2) Determination of the Kdapp:
(§3) In this study, a constant is determined which represents the affinity of the molecule for the receptor. Since this value can fluctuate depending on the basal activity and the expression of the receptor, it is referred to as the Kd apparent (KdApp).
(§4) To determine this constant, “crossed curves” of the test product against a reference agonist, 4-[2-(5,5,8,8-tetramethyl-5,6,7,8-tetrahydro-2-naphthyl)propenyl]benzoic acid, are performed in 96-well plates. The test product is used at 10 concentrations and the reference agonist at 7 concentrations. In each well, the cells are in contact with a concentration of the test product and a concentration of the reference agonist, 4-[2-(5,5,8,8-tetramethyl-5,6,7,8-tetrahydro-2-naphthyl)propenyl]benzoic acid. Measurements are also taken for the total agonist (4-[2-(5,5,8,8-tetramethyl-5,6,7,8-tetrahydro-2-naphthyl)propenyl]benzoic acid) and inverse agonist, 4-{(E)-3-[4-(4-tert-butylphenyl)-5,5,8,8-tetramethyl-5,6,7,8-tetrahydro-2-naphthyl]-3-oxopropenyl}benzoic acid, controls.
(§5) These crossed curves make it possible to determine the AC50 values (concentration at which 50% activation is observed) for the reference ligand at various concentrations of test product. These AC50 values are used to calculate the Schild regression by plotting a straight line corresponding to the Schild equation (“quantition in receptor pharmacology” Terry P. Kenakin, Receptors and Channels, 2001,7,371-385).
(§6) In the case of an antagonist, an IC50 value (concentration that inhibits 50% of the activity) is calculated by plotting the curve of the product at the concentration of the reference ligand that gives 80% activation.
(§7) The HeLa cell lines used are stable transfectants containing the plasmids ERE-βGlob-Luc-SV-Neo (reporter gene) and RAR (α, β, γ) ER-DBD-puro. These cells are inoculated into 96-well plates at a rate of 10 000 cells per well in 100 μl of DMEM medium without phenol red, and supplemented with 10% defatted calf serum. The plates are then incubated at 37° C. and 7% CO2 for 4 hours.
(§8) The various dilutions of the test products, of the reference ligand (4-[2-(5,5,8,8-tetramethyl-5,6,7,8-tetrahydro-2-naphthyl)propenyl]benzoic acid), of the 100% control (100 nM 4-[2-(5,5,8,8-tetramethyl-5,6,7,8-tetrahydro-2-naphthyl)propenyl]benzoic acid) and of the 0% control (500 nM 4-{(E)-3-[4-(4-tert-butylphenyl)-5,5,8,8-tetramethyl-5,6,7,8-tetrahydro-2-naphthyl]-3-oxopropenyl}benzoic acid) are added at a rate of 5 μl per well. The plates are then incubated for 18 hours at 37° C. and 7% CO2.
(§9) The culture medium is removed by turning over and 100 μl of a 1:1 PBS/luciferine mixture is added to each well. After 5 minutes, the plates are read using the luminescence detector.

RAR BETA = biological target: T2, RAR BETA (Homo sapiens, UniProt P10826); test: Transactivation test (luciferase reporter, HeLa stable transfectants), RAR beta; settings: HeLa cells; for Kd: apparent Kd from Schild regression of crossed curves against reference agonist, read-out: RAR BETA Kd app; for IC50: inhibition at the reference agonist concentration that gives 80% activation
T2 sequence (P10826 183-455 limits assumed): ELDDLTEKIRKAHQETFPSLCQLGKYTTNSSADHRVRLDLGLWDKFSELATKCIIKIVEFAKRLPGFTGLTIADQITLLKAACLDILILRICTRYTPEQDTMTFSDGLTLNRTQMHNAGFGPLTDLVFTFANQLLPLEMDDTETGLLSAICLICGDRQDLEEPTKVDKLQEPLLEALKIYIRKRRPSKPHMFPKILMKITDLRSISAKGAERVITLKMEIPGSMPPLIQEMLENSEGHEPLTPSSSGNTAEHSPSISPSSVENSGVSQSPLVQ
Protocol: as §1, §2, §3, §4, §5, §6, §7, §8, §9

RAR GAMMA = biological target: T3, RAR GAMMA (Homo sapiens, UniProt P13631); test: Transactivation test (luciferase reporter, HeLa stable transfectants), RAR gamma; settings: HeLa cells; for Kd: apparent Kd from Schild regression of crossed curves against reference agonist, read-out: RAR GAMMA Kd app; for IC50: inhibition at the reference agonist concentration that gives 80% activation
T3 sequence (P13631 185-454 limits assumed): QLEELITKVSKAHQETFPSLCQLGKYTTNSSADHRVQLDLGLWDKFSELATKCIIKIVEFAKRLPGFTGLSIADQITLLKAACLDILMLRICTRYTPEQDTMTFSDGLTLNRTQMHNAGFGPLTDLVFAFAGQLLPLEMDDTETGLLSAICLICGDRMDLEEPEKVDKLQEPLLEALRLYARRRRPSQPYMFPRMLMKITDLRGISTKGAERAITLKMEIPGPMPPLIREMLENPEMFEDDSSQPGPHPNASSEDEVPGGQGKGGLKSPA
Protocol: as §1, §2, §3, §4, §5, §6, §7, §8, §9

Kd (RAR ALPHA) [nM]	IC50 (RAR ALPHA) [nM]	Kd (RAR BETA) [nM]	IC50 (RAR BETA) [nM]	Kd (RAR GAMMA) [nM]	IC50 (RAR GAMMA) [nM]	Compound
4000	7000	60	96	15	37.5	Cc1ccc(-c2cc(C(O)C#Cc3ccc(C(=O)O)cc3)cc3c2C(C)(C)CCC3(C)C)cc1 (stereo not drawn) [Ex. 5, 4-[3-Hydroxy-3-(5,5,8,8-tetramethyl-4-p-tolyl-5,6,7,8-tetrahydro-2-naphthyl)-1-propynyl]benzoic Acid]
2	3.5	4	6.4	0.25	0.625	CC(C)(C)c1ccc(-c2cc(C(=O)/C=C/c3ccc(C(=O)O)cc3)cc3c2C(C)(C)CCC3(C)C)cc1 [Ex. 8, 4-{(E)-3-[4-(4-tert-Butylphenyl)-5,5,8,8-tetramethyl-5,6,7,8-tetrahydro-2-naphthyl]-3-oxopropenyl}benzoic Acid]
1	1.75	0.25	0.4	1	2.5	Cc1ccc(-c2cc(C(=O)/C=C/c3ccc(C(=O)O)cc3)cc3c2C(C)(C)CCC3(C)C)cc1 [Ex. 7]
250	437	500	800	30	75	Cc1ccc(-c2cc(C(O)/C=C/c3ccc(C(=O)O)cc3)cc3c2C(C)(C)CCC3(C)C)cc1 (stereo not drawn) [Ex. 9, 4-[(E)-3-Hydroxy-3-(5,5,8,8-tetramethyl-4-p-tolyl-5,6,7,8-tetrahydro-2-naphthyl)propenyl]benzoic Acid]
